According to US6855730B2, “3-methylidenyl-2-indolinone modulators of protein kinase” (Sugen, Inc., priority 1998, dated 2005):

Biological target: EGFR (Homo sapiens, UniProt P00533)
Experiment: EGFR assay (cellular ELISA, NIH 3T3/C7 cells)
Type: cell-based
Design: expressed in transfected cells; host or cells: NIH 3T3/C7
Conditions: read-out: cell EGF IC50
Protocol: EGF Receptor kinase activity in cells genetically engineered to express human EGF-R can be measured as described below:
Materials and Reagents. • a. […] 05-101 (UBI) (a monoclonal antibody recognizing an EGFR extracellular domain). • c. Anti-phosphotyosine antibody (anti-Ptyr) (polyclonal). • d. Detection antibody: Goat anti-rabbit IgG horse radish peroxidase conjugate, TAGO, Inc. Burlingame, Calif. • e. TBST buffer:
• Keep solution in dark at 4° C. until used. • h. Stock reagents of:
Pre-coat ELISA Plate • 1. […] Coated plates are good for up to 10 days when stored at 4° C. • 2. On day-of use, remove coating buffer and replace with blocking buffer (5% Carnation Instant NonFat Dry Milk in PBS). Incubate the plate, shaking, at room temperature (about 23° C. to 25° C.) for 30 minutes. Just prior to use, remove blocking buffer and wash plate 4 times with TBST buffer.
Seeding Cells • 1. […] Choose dishes having 80-90% confluence for the experiment. Trypsinize cells and stop reaction by adding 10% CS DMEM medium. Suspend cells in DMEM medium (10% CS DMEM medium) and centrifuge once at 1000 rpm at room temperature for 5 minutes. • 3. Resuspend cells in seeding medium (DMEM, 0.5% bovine serum), and count the cells using trypan blue. Viability above 90% is acceptable. Seed cells in DMEM medium (0.5% bovine serum) at a density of 10,000 cells per well, 100 μl per well, in a 96 well microtiter plate. Incubate seeded cells in 5% CO2 at 37° C. for about 40 hours.
Assay Procedures. • 1. Check seeded cells for contamination using an inverted microscope. Dilute test compounds stock (10 mg/ml in DMSO) 1:10 in DMEM medium, then transfer 5 μl to a test well for a test compounds drug dilution of 1:200 and a final DMSO concentration of 1%. Control wells receive DMSO alone. Incubate in 5% CO2 at 37° C. for one hour. • 2. Prepare EGF ligand: dilute stock EGF in DMEM so that upon transfer of 10 μl dilute EGF (1:12 dilution), 25 nM final concentration is attained. • 3. Prepare fresh 10 ml HNTG* sufficient for 100 μl per well wherein HNTG* comprises: HNTG stock (2.0 ml), milli-Q H2O (7.3 ml), EDTA, 100 mM, pH 7.0 (0.5 ml), Na3VO4 0.5 M (0.1 ml) and Na4(P2O7), 0.2 M (0.1 ml). • 4. Place on ice. • 5. After two hours incubation with drug, add prepared EGF ligand to cells, 10 μl per well, to yield a final concentration of 25 nM. Control wells receive DMEM alone. Incubate, shaking, at room temperature, for 5 minutes. • 6. Remove test compound, EGF, and DMEM. Wash cells twice with PBS. Transfer HNTG* to cells, 100 μl per well. Place on ice for 5 minutes. Meanwhile, remove blocking buffer from other ELISA plate and wash with TBST as described above. • 7. With a pipette tip securely fitted to a micropipettor, scrape cells from plate and homogenize cell material by repeatedly aspirating and dispensing the HNTG* lysis buffer. Transfer lysate to a coated, blocked, and washed ELISA plate. Incubate shaking at room temperature for one hour. • 8. Remove lysate and wash 4 times with TBST. Transfer freshly diluted anti-Ptyr antibody to ELISA plate at 100 μl per well. Incubate shaking at room temperature for 30 minutes in the presence of the anti-Ptyr antiserum (1:3000 dilution in TBST). • 9. Remove the anti-Ptyr antibody and wash 4 times with TBST. Transfer the freshly diluted TAGO 30 anti-rabbit IgG antibody to the ELISA plate at 100 μl per well. Incubate shaking at room temperature for 30 minutes (anti-rabbit IgG antibody: 1:3000 dilution in TBST). • 10. Remove detection antibody and wash 4 times with TBST. Transfer freshly prepared ABTS/H2O2 solution to ELISA plate, 100 μl per well. Incubate at room temperature for 20 minutes. ABTS/H2O2 solution: 1.2 μl 30% H2O2 in 10 ml ABTS stock. • 11. Stop reaction by adding 50 μl 5N H2SO4 (optional), and determine O.D. at 410 nm. • 12. The maximal phosphotyrosine signal is determined by subtracting the value of the negative controls from the positive controls. […]

Sequence of EGFR (P00533 25-1210): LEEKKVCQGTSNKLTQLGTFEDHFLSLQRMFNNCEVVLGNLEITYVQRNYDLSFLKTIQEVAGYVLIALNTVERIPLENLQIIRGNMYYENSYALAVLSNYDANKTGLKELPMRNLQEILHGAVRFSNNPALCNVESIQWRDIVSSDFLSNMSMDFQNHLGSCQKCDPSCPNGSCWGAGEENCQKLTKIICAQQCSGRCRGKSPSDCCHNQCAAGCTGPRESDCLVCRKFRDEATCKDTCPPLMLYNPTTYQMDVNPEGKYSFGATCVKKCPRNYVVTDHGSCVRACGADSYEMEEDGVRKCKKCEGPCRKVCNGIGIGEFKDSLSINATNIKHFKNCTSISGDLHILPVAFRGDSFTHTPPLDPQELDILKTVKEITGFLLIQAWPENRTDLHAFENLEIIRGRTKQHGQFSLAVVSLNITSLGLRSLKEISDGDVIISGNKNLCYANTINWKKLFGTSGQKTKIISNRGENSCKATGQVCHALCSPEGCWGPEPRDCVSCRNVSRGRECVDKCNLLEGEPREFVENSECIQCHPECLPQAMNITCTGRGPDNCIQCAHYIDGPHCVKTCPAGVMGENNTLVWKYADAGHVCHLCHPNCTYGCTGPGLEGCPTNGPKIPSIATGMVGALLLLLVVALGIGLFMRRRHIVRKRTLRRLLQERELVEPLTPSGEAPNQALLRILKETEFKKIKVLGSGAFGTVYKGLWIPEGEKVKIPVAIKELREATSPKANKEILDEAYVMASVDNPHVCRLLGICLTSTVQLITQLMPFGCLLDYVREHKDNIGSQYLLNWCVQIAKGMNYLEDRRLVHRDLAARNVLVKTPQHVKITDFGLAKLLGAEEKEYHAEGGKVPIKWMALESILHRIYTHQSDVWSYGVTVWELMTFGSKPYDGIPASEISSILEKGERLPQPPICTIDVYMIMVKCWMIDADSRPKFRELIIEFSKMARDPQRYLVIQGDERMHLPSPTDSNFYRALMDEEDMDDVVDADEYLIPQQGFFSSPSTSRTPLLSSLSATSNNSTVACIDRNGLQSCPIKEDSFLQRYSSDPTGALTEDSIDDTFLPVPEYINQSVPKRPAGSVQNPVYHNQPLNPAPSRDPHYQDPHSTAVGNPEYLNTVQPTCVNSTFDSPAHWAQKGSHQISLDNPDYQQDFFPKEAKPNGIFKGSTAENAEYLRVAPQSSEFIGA

| Structure (SMILES) | IC50 [µM] |
| --- | --- |
| COc1cc(C)c(C=C2C(=O)Nc3ccccc32)cc1C(C)C [Example 8, 3-(5-Isopropyl-4-methoxy-2-methylbenzylidene)-1,3-dihydroindol-2-one] | 43.7 |
| COc1c(C(C)C)cc(/C=C2/C(=O)Nc3cc(F)ccc32)cc1C(C)C [Example 22, 3-(3,5-Diisopropyl-4-methoxybenzylidene)-6-fluoro-1,3-dihydroindol-2-one] | > 100 |
| CCc1ccc2c(c1)/C(=C\c1cc(C(C)C)c(OC)c(C(C)C)c1)C(=O)N2 [Example 28, 3-(3,5-Diisopropyl-4-methoxbenzylidene)-5-ethyl-1,3-dihydroindol-2-one] | > 100 |
| COc1c(C(C)C)cc(/C=C2/C(=O)Nc3ccc(C(C)=O)cc32)cc1C(C)C [Example 5, 5-Acetyl-3-(3,5-diisopropyl-4-methoxybenzylidene)-1,3dihydroindol-2-one] | 21.5 |
| COc1ccc2c(c1)/C(=C\c1cc(C(C)C)c(OC)c(C(C)C)c1)C(=O)N2 [Example 17, 3-(3,5-Diisopropyl-4-methoxybenzylidene)-5-methoxy-1,3-dihydroindol-2-one] | 68 |
| COc1cc(C)c(/C=C2/C(=O)Nc3ccc(Br)cc32)cc1C(C)C [Example 36, 5-Bromo-3-(5-isopropyl-4-methoxy-2-methyl-benzylidene)-1,3-dihydroindol-2-one] | 66.8 |
| COc1ccc(/C=C2/C(=O)Nc3ccc(CCN4CCOCC4)cc32)cc1-c1ccsc1 [Example 26, 3-(4-Methoxy-3-thiophen-3-ylbenzylidene)-5-(2-morpholin-4-yl-ethyl)-1,3-dihydroindol-2-one] | 94 |
| COc1ccc(/C=C2/C(=O)Nc3cc(NC(C)=O)ccc32)cc1-c1ccsc1 [Example 18, N-[3-(4-Methoxy-3-thiophene-3-ylbenzylidene)-2-oxo-2,3-dihydro-1H-indol-6-yl]-acetamide] | > 100 |
| CC1(C)CCc2cc(/C=C3/C(=O)Nc4ccc(Cl)cc43)ccc2O1 [Example 15, 5-Chloro-3-(2,2-dimethyl-chroman-6-ylmethylene)-1,3-dihydroindol-2-one] | 46.5 |
| COc1ccc(C=C2C(=O)Nc3ccccc32)cc1-c1cccc(NC(C)=O)c1 [Example 29, N-[2′-Methoxy-5′-(2-oxo-1,2-dihydroindol-3-ylidenemethyl)-biphenyl-3-yl]-acetamide] | > 100 |
| COc1c(C(C)C)cc(/C=C2/C(=O)Nc3cc(N)ccc32)cc1C(C)C [Example 32, 6-Amino-3-(3,5-diisoprotyl-4-methoxy-benzylidene)-1,3-dihydroindol-2-one] | > 100 |
| CC(C)c1cc(/C=C2/C(=O)Nc3ccc(Cl)cc32)cc(C(C)C)c1OCCN1CCOCC1 [Example 24, 5-chloro-3-[3,5-diisopropyl-4-(2-morpholin-4-ylethoxy)-benzylidene]-1,3-dihydroindol-2-one] | 38.5 |
| COc1cc(C)c(/C=C2/C(=O)Nc3ccc(F)cc32)cc1C(C)C [Example 30, 5-Fluoro-3-(5-isopropyl-4-methoxy-2-methyl-benzylidene)-1,3-dihydroindol-2-one] | 63.4 |
| COc1ccc(/C=C2\C(=O)Nc3cccc(C)c32)cc1C(C)C [Example 38, 3-(3-Isopropyl-4-methoxybenzylidene)-4-methyl-1,3-dihydroindol-2-one] | > 100 |
| COC(=O)c1ccc2c(c1)/C(=C\c1cc(C(C)C)c(OC)c(C(C)C)c1)C(=O)N2 [Example 6, 3-(3,5-Diisopropyl-4-methoxybenzylidene)-2-oxo-2,3-dihydro-1H-indole-5-carboxylic acid methyl ester] | 40.5 |
| COc1ccc(/C=C2/C(=O)Nc3cc(NC(C)=O)ccc32)cc1-c1cccs1 [Example 31, N-[3-(4-Methoxy-3-thiophen-2-ylbenzylidene)-2-oxo-2,3-dihydro-1H-indol-6-yl]-acetamide] | 29.6 |

Next, values leading:

| IC50 [µM] | Structure (SMILES) |
| --- | --- |
| > 100 | O=C1Nc2ccccc2/C1=C\c1ccc2c(c1)CCO2 [Example 66, 3-(2,3-Dihydrobenzofuran-5-ylmethylene)-1,3-dihydroindol-2-one] |
| > 100 | COc1ccc(/C=C2/C(=O)Nc3ccc(Cl)cc32)cc1-c1ccccc1 [Example 67, 5-Chloro-3-(6-methoxybiphenyl-3-ylmethylene)-1,3-dihydroindol-2-one] |
| > 100 | O=C1Nc2ccc(F)cc2/C1=C\c1ccc2c(c1)CCO2 [Example 42, 3-(2,3-Dihydrobenzofuran-5-ylmethylene)-5-fluoro-1,3-dihydroindol-2-one] |
| > 100 | COc1ccc(/C=C2\C(=O)Nc3cccc(C)c32)cc1C1CCCC1 [Example 48, 3-(3-Cyclopentyl-4-methoxybenzylidene)-4-methyl-1,3-dihydroindol-2-one] |
| > 100 | COc1ccc(/C=C2/C(=O)Nc3ncccc32)cc1C1CCCC1 [Example 47, 3-(3-Cyclopentyl-4-methoxybenzylidene)-1,3-dihydropyrrolo[2,3-b]pyridin-2-one] |
| > 100 | Cc1cccc2c1/C(=C/c1ccc3c(c1)CCC(C)(C)O3)C(=O)N2 [Example 41, 3-(2,2-Dimethylchroman-6-ylmethylene)-4-methyl-1,3-dihydroindol-2-one] |
| 78.4 | CC(=O)Nc1ccc2c(c1)NC(=O)/C2=C/c1ccc(OCCN2CCOCC2)c(C(C)(C)C)c1 [Example 55, N-{3-[3-tert-Butyl-4-(2-morpholin-4-ylethoxy)-benzylidene]-2-oxo-2,3-dihydro-1H-indol-6-yl}-acetamide] |
| > 100 | COc1ccc(/C=C2\C(=O)Nc3cccc(C)c32)cc1C1CCCCC1 [Example 68, 3-(3-Cyclohexyl-4-methoxybenzylidene)-4-methyl-1,3-dihydroindol-2-one] |
| > 100 | Cc1cc(CCC(=O)O)c(/C=C2\C(=O)Nc3ccc(Cl)cc32)[nH]1 [Example 111, 3-[2-(5-Chloro-2-oxo-1,2-dihydroindol-3-ylidenemethyl)-5-methyl-1H-pyrrol-3-yl]propionic acid] |
| > 100 | COc1ccccc1-c1ccc2c(c1)NC(=O)/C2=C\c1[nH]c(C)cc1CCC(=O)O [Example 109, 3-{2-[6-(2-Methoxyphenyl)-2-oxo-1,2-dihydroindol-3-ylidenemethyl]-5-methyl-1H-pyrrol-3-yl}-propionic acid] |
| > 100 | COc1ccc(/C=C2/C(=O)Nc3ncccc32)cc1-c1ccccc1 [Example 71, 3-(6-Methoxybiphenyl-3-ylmethylene)-1,3-dihydropyrrolo[2,3-b]pyridin-2-one] |
| > 100 | CC(=O)Nc1ccc2c(c1)NC(=O)/C2=C/c1ccc(OCCN2CCOCC2)c(-c2ccsc2)c1 [Example 50, N-{3-[4-(2-Morpholin-4-ylethoxy)-3-thiophen-3-ylbenzylidene]-2-oxo-2,3-dihydro-1H-indol-6-yl}-acetamide] |
| > 100 | COc1ccc(/C=C2/C(=O)Nc3ccc(Cl)cc32)cc1-c1cccnc1 [Example 60] |
| > 100 | COc1c(C(C)C)cc(/C=C2/C(=O)Nc3ncccc32)cc1C(C)C [Example 74, 3-(3,5-Diisopropyl-4-methoxybenzylidene)-1,3-dihydropyrrolo[2,3-b]pyridin-2-one] |
| > 100 | CCOc1cccc(-c2cc(C=C3C(=O)Nc4ccccc43)ccc2OC)c1 [Example 46, 3-(3′-Ethoxy-6-methoxybiphenyl-3-ylmethylene)-1,3-dihydroindol-2-one] |
